In patent EP0193414A2, “Liposomes, process for their preparation and compositions containing them” (Fluck, David John, priority 1985, dated 1986):

Tests used:
[1] = depot formation at the injection site after intramuscular injection in goats; assay type: in vivo, goat
Protocol: An injection site depot from another goat to which free Samorin in aqueous solution was administered by the same route and at the same dosage as that from this Example was noted to be more diffuse.
Liposomal Berenil was recovered from each depot.

trypanosomiasis = conditions: free drug, cited from earlier work; for period of protection (prophylaxis): Samorin at 0.5-1.0 mg/kg, dependent on dosage and tsetse fly challenge
[2] = free drug in aqueous solution; cited from earlier work
[3] = cited from earlier work; for side effects: free drug, 1 mg/kg for homidium and 0.5-1.0 mg/kg for Samorin

Structure (SMILES): N=C(N)c1ccc(N=NNc2ccc(C(=N)N)cc2)cc1 [Berenil, diminazene aceturate]
- depot at the injection site ([1]; goat, intramuscular, 3.5 mg/kg live weight (calculated as active ingredient)): no indication of a depot
- period of protection (prophylaxis) (trypanosomiasis): a few days only

Structure (SMILES): CC[n+]1c(-c2ccccc2)c2cc(N/N=N/c3cccc(C(=N)N)c3)ccc2c2ccc(N)cc21.[Cl-] [isometamidium chloride]
- stability in aqueous solution [2]: rapid lability

Structure (SMILES): CC[n+]1c(-c2ccccc2)c2cc(N)ccc2c2ccc(N)cc21 [homidium, 2,7-diamino-9-phenyl-10-ethylphenanthridinium]
- side effects [3]: infrequent
- drug depots after administration of free drug ([3]; intramuscular, free drug in aqueous solution): diffuse staining of muscle tissue

Structure (SMILES): CC[n+]1c(-c2ccccc2)c2cc(N)ccc2c2ccc(N)cc21 [Homidium chloride, 2,7-diamino-9-phenyl-10-ethylphenanthridinium]
- period of protection (prophylaxis) (trypanosomiasis): ≤ 60 days

Structure (SMILES): CC[n+]1c(-c2ccccc2)c2cc(NN=Nc3cccc(C(=N)N)c3)ccc2c2ccc(N)cc21.Cl.[Cl-] [Samorin, 8-[(m-amidinophenylazo)amino]-3-amino-5-ethyl-6-phenylphenanthridinium chloride hydrochloride]
- side effects [3]: reaction by the injected tissue to the drug
- depot at the injection site ([1]; goat culled 15 days after intramuscular administration, 1 mg/kg live weight Samorin): more diffuse
- period of protection (prophylaxis) (trypanosomiasis): 60 to 120 days
- dosage with therapeutic trypanocidal action (trypanosomiasis): 0.25 mg/kg
